Patent US20210009542A1 (Calico Life Sciences LLC, priority 2018, published 2021)
Where two headings read alike, the source gives them in different places.

Columns and labels:
[1] = biological target: T1, His tagged PTPN2 (TC45) protein (Homo sapiens, UniProt P17706); assay: Mobility shift assay (MSA) for potency of PTPN2 inhibitors; assay type: biochemical; settings: read-out: PTPN2 MSA IC50
T1 construct: made in house
T1 sequence (P17706 with tags, fused parts or gaps isoform P17706-2): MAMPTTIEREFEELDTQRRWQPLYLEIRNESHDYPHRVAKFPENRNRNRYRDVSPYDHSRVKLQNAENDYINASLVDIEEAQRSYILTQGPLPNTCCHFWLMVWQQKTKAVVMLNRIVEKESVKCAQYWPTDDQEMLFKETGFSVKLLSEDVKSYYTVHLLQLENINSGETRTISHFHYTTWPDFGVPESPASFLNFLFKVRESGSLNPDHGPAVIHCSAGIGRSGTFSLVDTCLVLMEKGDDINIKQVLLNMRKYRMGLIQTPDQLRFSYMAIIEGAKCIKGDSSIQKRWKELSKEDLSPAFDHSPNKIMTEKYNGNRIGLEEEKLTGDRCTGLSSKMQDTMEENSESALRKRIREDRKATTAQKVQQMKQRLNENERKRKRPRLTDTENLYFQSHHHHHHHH
Procedure, shortened: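 His-tagged PTPN2 TC45 (0.5 nM) was preincubated with compound (12-point, 1:3) for 10 min at room temperature in 50 mM HEPES pH 7.5, 1 mM EGTA, 10 mM EDTA, 0.01% Tween 20, 2 mM DTT. OG488-labelled phospho-insulin-receptor peptide ([…]) was then added for 10 min. After quenching, dephosphorylation was measured by microfluidic mobility shift and IC50 derived from % inhibition.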

[2] = biological target: T2, His tagged full-length PTP1B protein (Homo sapiens, UniProt P18031); assay: Mobility shift assay (MSA) for potency of PTP1B inhibitors; assay type: biochemical
T2 construct: made in house
T2 sequence (P18031 with tags, fused parts or gaps): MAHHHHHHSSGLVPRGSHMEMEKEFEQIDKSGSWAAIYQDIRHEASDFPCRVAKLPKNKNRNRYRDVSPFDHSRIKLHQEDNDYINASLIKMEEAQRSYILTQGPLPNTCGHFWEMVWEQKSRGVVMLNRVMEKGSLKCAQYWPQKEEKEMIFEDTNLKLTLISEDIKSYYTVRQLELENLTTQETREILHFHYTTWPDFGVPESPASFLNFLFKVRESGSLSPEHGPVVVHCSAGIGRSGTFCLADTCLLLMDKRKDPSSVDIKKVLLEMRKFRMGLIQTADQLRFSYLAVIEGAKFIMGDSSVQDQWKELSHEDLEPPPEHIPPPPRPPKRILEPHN
Method: The enzymatic assay used to determine activity is a mobility shift assay using a LabChip EZ Reader by Caliper Life Sciences. The enzymatic reaction was carried out in assay buffer (50 mM HEPES pH 7.5, 1 mM EGTA, 10 mM EDTA, 0.01% Tween® 20, and 2 mM DTT). […] The enzyme (at 0.5 nM) was incubated with compound for 10 minutes at room temperature. […] The % inhibition was then used to calculate the IC50 values.

[3] = tested on: B16F10 mouse melanoma cells; assay: B16F10 IFNγ-induced cellular growth inhibition assay; assay type: cell-based; settings: Mus musculus, B16-F10, 33 μM compound
Procedure, shortened: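 B16F10 cells (500/well, DMEM + 10% FBS) dosed in triplicate at 100 μM to 0.001 μM (0.1% DMSO) with or without 0.5 ng/mL final mouse IFNγ. Confluence imaged every 6 h for 5 days; % growth inhibition calculated versus DMSO/with-IFNγ control once DMSO/no-IFNγ wells exceeded 95% confluence.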

[4] = +0.5 ng/mL IFNγ, relative to DMSO control, read-out: % B16F10 growth inhibition (+0.5 ng/mL IFNγ) @ 33 μM
[5] = no IFNγ, read-out: % B16F10 growth inhibition (no IFNγ) @ 33 μM

| IC50 [2] [µM] | Structure (SMILES) | IC50 [1] [µM] | inhibition at 33 µM [3, 4] [%] | inhibition at 33 µM [3, 5] [%] |
| --- | --- | --- | --- | --- |
| 0.01 to 0.1 | O=C1CN(c2c(O)cc3ccc(OCC4(F)CCNC4)cc3c2F)S(=O)(=O)N1 (stereo not shown) [Compound 110, 5-{1-fluoro-7-[(3-fluoropyrrolidin-3-yl)methoxy]-3-hydroxynaphthalen-2-yl}-1λ^6,2,5-thiadiazolidine-1,1,3-trione] | 0.001 to 0.01 | 60 to 90 | < 25 |
| 0.001 to 0.01 | O=C1CN(c2c(O)cc3ccc(OCCC4CCCO4)cc3c2F)S(=O)(=O)N1 (stereo not shown) [Compound 213, 5-{1-fluoro-3-hydroxy-7-[2-(oxolan-2-yl)ethoxy]naphthalen-2-yl}-1λ^6,2,5-thiadiazolidine-1,1,3-trione] | < 0.001 | 60 to 90 | < 25 |
| > 0.1 | O=C1CN(c2c(O)cc3ccc(OCC4CCCOC4)cc3c2F)S(=O)(=O)N1 (stereo not shown) [Compound 271, 5-{1-fluoro-3-hydroxy-7-[(oxan-3-yl)methoxy]naphthalen-2-yl}-1λ^6,2,5-thiadiazolidine-1,1,3-trione] | < 0.001 | 60 to 90 | < 25 |
| 0.01 to 0.1 | CN(C)CCOc1ccc2cc(O)c(N3CC(=O)NS3(=O)=O)c(F)c2c1 [Compound 131, 5-{7-[2-(dimethylamino)ethoxy]-1-fluoro-3-hydroxynaphthalen-2-yl}-1λ^6,2,5-thiadiazolidine-1,1,3-trione] | 0.001 to 0.01 | > 90 | < 25 |
| 0.001 to 0.01 | CC[C@H]1C[C@@H]1COc1ccc2cc(O)c(N3CC(=O)NS3(=O)=O)c(F)c2c1 (racemic) [Compound 218, 5-(7-{[rac-(1R,2R)-2-ethylcyclopropyl]methoxy}-1-fluoro-3-hydroxynaphthalen-2-yl)-1λ^6,2,5-thiadiazolidine-1,1,3-trione] | 0.001 to 0.01 | 25 to 59 | < 25 |
| < 0.001 | O=C1CN(c2c(O)cc3ccc(OCCC4CC4(F)F)cc3c2F)S(=O)(=O)N1 (stereo not shown) [Compound 192, 5-{7-[2-(2,2-difluorocyclopropyl)ethoxy]-1-fluoro-3-hydroxynaphthalen-2-yl}-1λ^6,2,5-thiadiazolidine-1,1,3-trione] | < 0.001 | 60 to 90 | < 25 |
| > 0.1 | O=C1CN(c2c(O)cc3ccc(C4CCOC4)cc3c2F)S(=O)(=O)N1 (stereo not shown) [Compound 255, 5-[1-fluoro-3-hydroxy-7-(oxolan-3-yl)naphthalen-2-yl]-1λ^6,2,5-thiadiazolidine-1,1,3-trione] | 0.001 to 0.01 | 60 to 90 | < 25 |
| 0.001 to 0.01 | O=C1CN(c2c(O)cc3ccc(OCC(O)C4CC4)cc3c2F)S(=O)(=O)N1 (stereo not shown) [Compound 150, 5-[7-(2-cyclopropyl-2-hydroxyethoxy)-1-fluoro-3-hydroxynaphthalen-2-yl]-1λ^6,2,5-thiadiazolidine-1,1,3-trione] | 0.001 to 0.01 | > 90 | < 25 |
| 0.001 to 0.01 | NC12CC(CCOc3ccc4cc(O)c(N5CC(=O)NS5(=O)=O)c(F)c4c3)(C1)C2 [Compound 121, 5-{7-[2-(3-aminobicyclo[1.1.1]pentan-1-yl)ethoxy]-1-fluoro-3-hydroxynaphthalen-2-yl}-1λ^6,2,5-thiadiazolidine-1,1,3-trione] | 0.001 to 0.01 | 60 to 90 | < 25 |
| 0.01 to 0.1 | CC(O)COc1ccc2cc(O)c(N3CC(=O)NS3(=O)=O)c(F)c2c1 (stereo not shown) [Compound 135, 5-[1-fluoro-3-hydroxy-7-(2-hydroxypropoxy)naphthalen-2-yl]-1λ^6,2,5-thiadiazolidine-1,1,3-trione] | 0.001 to 0.01 | – | – |
| 0.01 to 0.1 | O=C1CN(c2c(O)cc3ccc([C@H]4CCNC4)cc3c2F)S(=O)(=O)N1 (single isomer, unassigned) [Compound 233] | 0.001 to 0.01 | – | – |
| 0.01 to 0.1 | O=C1CN(c2c(O)cc3ccc([C@@H]4CCNC4)cc3c2F)S(=O)(=O)N1 (single isomer, unassigned) [Compound 232] | 0.001 to 0.01 | – | – |
| 0.01 to 0.1 | CS(=O)(=O)N1CCC(COc2ccc3cc(O)c(N4CC(=O)NS4(=O)=O)c(F)c3c2)C1 (stereo not shown) [Compound 173, 5-(1-fluoro-3-hydroxy-7-{[1-(methanesulfonyl)pyrrolidin-3-yl]methoxy}naphthalen-2-yl)-1,2,5-thiadiazolidine-1,1,3-trione] | < 0.001 | – | – |

Further lines, the molecule ahead of its results:

| Structure (SMILES) | IC50 [2] [µM] | IC50 [1] [µM] | inhibition at 33 µM [3, 4] [%] | inhibition at 33 µM [3, 5] [%] |
| --- | --- | --- | --- | --- |
| O=C1CN(c2c(O)cc3ccc(C4CCNC4)cc3c2F)S(=O)(=O)N1 (stereo not shown) [Compound 102, 5-[1-fluoro-3-hydroxy-7-(pyrrolidin-3-yl)naphthalen-2-yl]-1λ^6,2,5-thiadiazolidine-1,1,3-trione] | 0.01 to 0.1 | 0.001 to 0.01 | 60 to 90 | < 25 |
| O=C1CN(c2c(O)cc3ccc(C4CCN(S(=O)(=O)C5CC5)C4)cc3c2F)S(=O)(=O)N1 (stereo not shown) [Compound 101, 5-{7-[1-(cyclopropanesulfonyl)pyrrolidin-3-yl]-1-fluoro-3-hydroxynaphthalen-2-yl}-1λ^6,2,5-thiadiazolidine-1,1,3-trione] | 0.001 to 0.01 | < 0.001 | 60 to 90 | < 25 |
| CC(O)CCOc1ccc2cc(O)c(N3CC(=O)NS3(=O)=O)c(F)c2c1 (stereo not shown) [Compound 156, 5-[1-fluoro-3-hydroxy-7-(3-hydroxybutoxy)naphthalen-2-yl]-1λ^6,2,5-thiadiazolidine-1,1,3-trione] | 0.001 to 0.01 | < 0.001 | 60 to 90 | < 25 |
| O=C1CN(c2c(O)cc3ccc(C(CO)CCl)cc3c2F)S(=O)(=O)N1 (stereo not shown) [Compound 221, 5-[7-(1-chloro-3-hydroxypropan-2-yl)-1-fluoro-3-hydroxynaphthalen-2-yl]-1λ^6,2,5-thiadiazolidine-1,1,3-trione] | > 0.1 | 0.01 to 0.1 | – | – |
| CCCS(=O)(=O)N1CC=C(c2ccc3cc(O)c(N4CC(=O)NS4(=O)=O)c(F)c3c2)C1 [Compound 288] | < 0.001 | < 0.001 | – | – |
| O=C1CN(c2c(O)cc3ccc(C4CCCN(S(=O)(=O)C5CC5)C4)cc3c2F)S(=O)(=O)N1 (stereo not shown) [Compound 186, 5-{7-[1-(cyclopropanesulfonyl)piperidin-3-yl]-1-fluoro-3-hydroxynaphthalen-2-yl}-1λ^6,2,5-thiadiazolidine-1,1,3-trione] | 0.01 to 0.1 | 0.001 to 0.01 | – | – |
| O=C1CN(c2c(O)cc3ccc(C4CCCN4C(=O)C4CC4)cc3c2F)S(=O)(=O)N1 (stereo not shown) [Compound 187, 5-{7-[1-(cyclopropanecarbonyl)pyrrolidin-2-yl]-1-fluoro-3-hydroxynaphthalen-2-yl}-1λ^6,2,5-thiadiazolidine-1,1,3-trione] | 0.01 to 0.1 | 0.001 to 0.01 | – | – |
| O=C1CN(c2c(O)cc3ccc(C4=CCN(S(=O)(=O)CC5COCCO5)C4)cc3c2F)S(=O)(=O)N1 (stereo not shown) [Compound 292, 5-(7-{1-[(1,4-dioxan-2-yl)methanesulfonyl]-2,5-dihydro-1H-pyrrol-3-yl}-1-fluoro-3-hydroxynaphthalen-2-yl)-1λ^6,2,5-thiadiazolidine-1,1,3-trione] | < 0.001 | < 0.001 | – | – |
| CCCC(C)S(=O)(=O)N1CC=C(c2ccc3cc(O)c(N4CC(=O)NS4(=O)=O)c(F)c3c2)C1 (stereo not shown) [Compound 294, 5-{1-fluoro-3-hydroxy-7-[1-(pentane-2-sulfonyl)-2,5-dihydro-1H-pyrrol-3-yl]naphthalen-2-yl}-1λ^6,2,5-thiadiazolidine-1,1,3-trione] | < 0.001 | < 0.001 | – | – |
| CC(C)(C)CC1CCN(c2ccc3cc(O)c(N4CC(=O)NS4(=O)=O)c(F)c3c2)C1 (stereo not shown) [Compound 220, 5-{7-[3-(2,2-dimethylpropyl)pyrrolidin-1-yl]-1-fluoro-3-hydroxynaphthalen-2-yl}-1λ^6,2,5-thiadiazolidine-1,1,3-trione] | > 0.1 | 0.01 to 0.1 | – | – |
